Measured values as given in patent US11192871B2, “5-hydroxytryptamine receptor 7 activity modulators and their method of use” (Temple University-Of The Commonwealth System of Higher …, priority 2014, dated 2021).

Molecular target: Serotonin 5HT7 receptors (Homo sapiens (Human), UniProt P34969)
Assay: Radiolabel Binding Studies for Serotonin 5HT7 receptors
Settings: for inhibition at 10 µM: read-out: 5-HT7 % inhib @ 10 uM; for IC50: radioligand competition binding, membranes of cells expressing recombinant 5HT7 receptors
Method: Radiolabel Binding Studies for Scrotonin 5HT7 Receptors, Method 1:
Eleven dilutions (5× assay concentration) of the compound of the disclosure and chlorpromazine are prepared in the Assay Buffer by serial dilution to yield final corresponding assay concentrations ranging from 10 pM to 10 μM.
(§1) A stock concentration of 5 nM [^3H]LSD (lysergic acid diethyl amide) is prepared in 50 mM Tris-HCl, 10 mM MgCl2, 1 mM EDTA, pH 7.4 (Assay Buffer). Aliquots (50 μl) of radioligand are dispensed into the wells of a 96-well plate containing 100 μl of Assay Buffer. Duplicate 50-μl aliquots of the compound of the disclosure test and chlorpromazine positive control reference compound serial dilutions are added.
(§2) Membrane fractions of cells expressing recombinant 5HT7 receptors (50 μL) are dispensed into each well. The membranes are prepared from stably transfected cell lines expressing 5HT7 receptors cultured on 10-cm plates by harvesting PBS-rinsed monolayers, resuspending and lysing in chilled, hypotonic 50 mM Tris-HCl, pH 7.4, centrifuging at 20,000×g, decanting the supernatant and storing at −80° C.; the membrane preparations are resuspended in 3 ml of chilled Assay Buffer and homogenized by several passages through a 26 gauge needle before using in the assay.
The 250-μl reactions are incubated at room temperature for 1.5 hours, then harvested by rapid filtration onto 0.3% polyethyleneimine-treated, 96-well filter mats using a 96-well Filtermate harvester. Four rapid 500-μl washes are performed with chilled Assay Buffer to reduce non-specific binding. The filter mats are dried, then scintillant is added to the filters and the radioactivity retained on the filters is counted in a Microbeta scintillation counter.
Raw data (dpm) representing total radioligand binding (i.e., specific+non-specific binding) are plotted as a function of the logarithm of the molar concentration of the competitor (i.e., test or reference compound).
Radiolabel Binding Studies for Serotonin 5-HT7 Receptors, Method 2:
as §1, with “[^3H]-5-Hydroxytryptamine ([^3H]-5HT)” for “[^3H]LSD (lysergic acid diethyl amide)”
as §2, with “guage” for “gauge”

inhibition at 10 µM | IC50 | SMILES | 5-HT7 % inhib @ 10 uM (single concentration of 10 uM, percent inhibition of radioligand binding)
15.9% | 1000 nM | CCC1(CC)CC(CCN2CCN(c3ccc4nc(C)[nH]c4c3)CC2)OC1=O (stereo not shown) [Entry 230069] | –
– | 1000 nM | CCC1(CC)CC(CCCN2CCN(c3ccc(OC)cc3)CC2)OC1=O (stereo not shown) [Entry 230060] | –
– | 1000 nM | COc1ccc(N2CCN(CC[C@H]3CC(C)(C)C(=O)O3)CC2)cc1 [Entry 230046] | –
– | 1000 nM | CCC1(CC)CC(CCN2CCN(c3ccc4nc(C(F)(F)F)[nH]c4c3)CC2)OC1=O (stereo not shown) [Entry 230068] | –
90% | 124 nM | COc1ccnc(N2CCN(CCC3CC4(CCCC4)C(=O)O3)CC2)c1 (stereo not shown) [Entry 230009] | –
– | – | O=C1OC(CCN2CCN(c3ccnc(Cl)c3)CC2)CC12CCCCC2 (stereo not shown) [Entry 160153] | 58.2%
– | 1000 nM | COc1ccc(N2CCN(CC[C@@H]3CC(C)(C)C(=O)O3)CC2)cc1 [Entry 230039] | –

SMILES | inhibition at 10 µM | IC50 | 5-HT7 % inhib @ 10 uM (single concentration of 10 uM, percent inhibition of radioligand binding)
O=C1OC(CCN2CCN(c3ccc4[nH]ccc4c3)CC2)CC12CCCC2 (stereo not shown) [Entry 160147] | 99.6% | – | –
